Source: publication PMC7864676 (Journal of pharmacological sciences, 2018)

T1: human organic anion transporter-3 (hOAT3) (Homo sapiens, UniProt Q8TCC7)
T1 sequence (Q8TCC7 1-542): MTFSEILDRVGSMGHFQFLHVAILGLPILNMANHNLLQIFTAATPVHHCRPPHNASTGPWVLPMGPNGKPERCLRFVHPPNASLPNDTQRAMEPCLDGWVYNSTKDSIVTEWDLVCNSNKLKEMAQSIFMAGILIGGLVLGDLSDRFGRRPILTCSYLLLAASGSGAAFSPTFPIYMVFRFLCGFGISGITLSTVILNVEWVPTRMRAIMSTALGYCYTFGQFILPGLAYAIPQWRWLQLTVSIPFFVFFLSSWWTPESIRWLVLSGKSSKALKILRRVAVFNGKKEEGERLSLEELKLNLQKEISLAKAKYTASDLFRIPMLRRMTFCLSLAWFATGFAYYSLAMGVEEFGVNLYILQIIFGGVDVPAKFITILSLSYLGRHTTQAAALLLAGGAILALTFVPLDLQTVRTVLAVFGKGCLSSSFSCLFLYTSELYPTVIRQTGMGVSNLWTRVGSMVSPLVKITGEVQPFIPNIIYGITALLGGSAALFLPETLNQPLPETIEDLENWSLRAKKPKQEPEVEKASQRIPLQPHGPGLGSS

B1: human organic anion transporter-3 (hOAT3) (Homo sapiens) (protein)
chain: MTFSEILDRVGSMGHFQFLHVAILGLPILNMANHNLLQIFTAATPVHHCRPPHNASTGPWVLPMGPNGKPERCLRFVHPPNASLPNDTQRAMEPCLDGWVYNSTKDSIVTEWDLVCNSNKLKEMAQSIFMAGILIGGLVLGDLSDRFGRRPILTCSYLLLAASGSGAAFSPTFPIYMVFRFLCGFGISGITLSTVILNVEWVPTRMRAIMSTALGYCYTFGQFILPGLAYAIPQWRWLQLTVSIPFFVFFLSSWWTPESIRWLVLSGKSSKALKILRRVAVFNGKKEEGERLSLEELKLNLQKEISLAKAKYTASDLFRIPMLRRMTFCLSLAWFATGFAYYSLAMGVEEFGVNLYILQIIFGGVDVPAKFITILSLSYLGRHTTQAAALLLAGGAILALTFVPLDLQTVRTVLAVFGKGCLSSSFSCLFLYTSELYPTVIRQTGMGVSNLWTRVGSMVSPLVKITGEVQPFIPNIIYGITALLGGSAALFLPETLNQPLPETIEDLENWSLRAKKPKQEPEVEKASQRIPLQPHGPGLGSS

How the values were obtained:
[1] = molecular target: T1, human organic anion transporter-3 (hOAT3); assay: cis-inhibition of [3H]-estrone sulfate uptake in hOAT3-expressing HEK293 cells; assay type: cell-based
[2] = substrate: C[C@]12CC[C@@H]3c4ccc(OS(=O)(=O)O)cc4CC[C@H]3[C@@H]1CCC2=O; assay: cells, lysate or membranes

| Molecule | Ki [1] [µM] | Km [2] [µM] |
| --- | --- | --- |
| C[C@@H]1C[C@H]2[C@@H]3CCC4=CC(=O)C=C[C@]4(C)[C@@]3(F)[C@@H](O)C[C@]2(C)[C@@]1(O)C(=O)CO [dexamethasone] | 47.1 | – |
| B1 | – | 5.07 ± 0.49 |
